Laboratory results from US7511062B2, “Substituted 2-quinolyl-oxazoles useful as PDE4 inhibitors” (Schering Corporation, priority 2004, dated 2009).

Target: Human PDE4 Enzyme
Experiment: PDE4 screening assay ([3H]cAMP SPA)
Assay type: biochemical
Conditions: human neutrophil PDE4, [3H]cAMP SPA
Description: The neutrophils were isolated from human blood using a standard procedure, then homogenized with a glass-glass homogenizer in a buffer containing 20 mM Tris/HCl (pH 8.0), protease inhibitor cocktail tablet (Cat. No. 1836145/Boehringer Mannheim), 2 mM EDTA, 1% Triton X-100 and 0.5% deoxycholate. After stirring for 2 h at 4° C., the samples were centrifuged at 100,000 g for 1 h. The supernatants were collected, filtered and applied to Mono Q column chromatography. The fractions containing the activity of hydrolyzing cAMP were determined and pooled as the enzymatic source of the PDE4 screening assay.
2. PDE4 Assay and Compound Screening
The PDE4 assays were performed using Phosphodiesterase [^3H]cAMP SPA enzyme assay kits and its procedures (Cat. No. TRKQ 7090, Amersham). The assay procedures are described briefly as follows. The diluted PDE4 enzyme, 10× assay buffer and water were mixed at a ratio of 1:1:6 (10 μl/10 μl/60 μl). 80 μl aliquots of this mixture were added into the test wells of a 96-well Microlite plate (Cat. No. 7416, ThermoLabsystems). Enzyme dilution buffer, instead of the diluted enzyme, and water were added into the wells of negative control (background). 10 μl test compounds in 10% DMSO, standard inhibitor in 10% DMSO or 10% DMSO (for positive and negative controls) were added into the corresponding wells, respectively. After a 10 min incubation at RT, the reactions were initiated by addition of 10 μl pre-diluted [^3H]cAMP into each well, then incubated at 30° C. for 30 min. The reactions were stopped by addition of 50 μl SPA beads into the test wells, then counted in a β-counter over 30 min ˜24 hr.
10× Assay Buffer: 500 mM Tris/HCl pH 7.5, 83 mM MgCl2, 17 mM EGTA
[^3H]cAMP: [3H] cAMP (40-60 Ci/mmol) is diluted at a 1:200 ratio with water. The final concentration is 0.005 μCi/μl
Yttrium SPA Beads: 500 mg of beads was reconstituted with 28 ml of water, stored at 4° C.

SMILES | IC50 [nM]
COc1ccc(-c2nc(C(=O)NCc3csc4ccccc34)c(CN)o2)c2ccc(C(F)(F)F)nc12 [13-106] | 0.14
COc1ccc(-c2nc(C(=O)NCc3ccc(F)cc3F)c([C@@H](N)CO)o2)c2ccc(C(F)(F)F)nc12 [38-3] | 1.8
COc1ccc(-c2nc(C(=O)N3CCC(Nc4ncccn4)CC3)c([C@H](C)N)o2)c2ccc(C(F)(F)F)nc12 [26-177] | 3
COc1ccc(-c2nc(C(=O)NC3CCCc4nccnc43)c([C@H](C)N)o2)c2ccc(C(F)(F)F)nc12 (mixture of isomers) [26-42] | 0.07
COc1ccc(-c2nc(C(=O)N3C[C@](O)(c4ncccn4)C[C@H]3C(=O)OC(C)C)c([C@H](C)N)o2)c2ccc(C(F)(F)F)nc12 [26-241] | 0.2
COc1ccc(-c2nc(C(=O)N[C@H]3CCC[C@@H]3O)c([C@H](C)N)o2)c2ccc(C(F)(F)F)nc12 [26-417] | 1.4
COc1ccc(-c2nc(C(=O)N3CCN(C(=O)C4CC4)CC3)c([C@H](C)N)o2)c2ccc(C(F)(F)F)nc12 [26-293] | 0.5
COc1ccc(-c2nc(C(=O)NC[C@@H](C)NC(=O)C3CC3)c([C@H](C)N)o2)c2ccc(C(F)(F)F)nc12 [26-444] | 0.03
COc1ccc(-c2nc(C(=O)NCc3coc4ccccc34)c([C@H](C)N)o2)c2ccc(C(F)(F)F)nc12 [26-92] | 0.01
